According to ChEMBL document CHEMBL2346550, “Synthesis of novel azo compounds containing 5(4H)-oxazolone ring as potent tyrosinase inhibitors” (Bioorg Med Chem, 2013):

How the values were obtained:
[1] = test system: B16-F10; assay: Inhibition of melanin production in mouse B16F10 cells at 20 ug/ml after 72 hrs; format: functional; conditions: B16-F10, 72 h
[2] = biological target: T1, Tyrosinase (Agaricus bisporus, UniProt O42713); assay: Inhibition of diphenolase activity of mushroom tyrosinase assessed as decrease in L-DOPA chrome formation using L-DOPA as substrate preincubated with enzyme for 10 mins prior to substrate addition measured for 10 mins by spectrophotometric assay
T1 sequence (O42713 whole entry): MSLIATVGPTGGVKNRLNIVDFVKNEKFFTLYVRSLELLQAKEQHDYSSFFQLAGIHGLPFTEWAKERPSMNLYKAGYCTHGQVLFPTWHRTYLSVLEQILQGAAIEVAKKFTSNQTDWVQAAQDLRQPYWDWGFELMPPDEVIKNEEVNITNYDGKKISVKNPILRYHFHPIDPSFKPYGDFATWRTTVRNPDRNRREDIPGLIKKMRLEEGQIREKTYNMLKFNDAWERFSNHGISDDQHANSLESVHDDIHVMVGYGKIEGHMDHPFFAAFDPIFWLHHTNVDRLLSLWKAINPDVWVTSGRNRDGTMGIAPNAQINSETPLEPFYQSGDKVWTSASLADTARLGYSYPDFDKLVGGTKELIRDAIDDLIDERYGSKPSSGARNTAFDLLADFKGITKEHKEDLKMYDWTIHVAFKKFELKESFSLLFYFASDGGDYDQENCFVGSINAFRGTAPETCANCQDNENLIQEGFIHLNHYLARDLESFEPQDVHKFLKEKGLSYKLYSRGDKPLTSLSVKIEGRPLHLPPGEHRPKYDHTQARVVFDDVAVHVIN

[3] = Cytotoxicity against mouse B16F10 cells assessed as cell viability at 20 ug/ml after 72 hrs by micro-culture MTT assay; format: cell-based, B16-F10; conditions: read-out: Activity

SMILES	inhibition at 20 µg/mL [1] [%]	IC50 [2] [µM]	viability at 72 h, 20 ug/ml [3] [%]
CC(=O)Oc1c(/N=N/c2ccc(C3=N/C(=C/c4ccc(F)cc4)C(=O)O3)cc2)ccc2ccccc12	31.3	4.33	72.1
CC(=O)Oc1c(/N=N/c2ccc(C3=N/C(=C/c4ccc(OC(F)(F)F)cc4)C(=O)O3)cc2)ccc2ccccc12	33.4	3.98	73.5
CC(=O)Oc1ccc2ccccc2c1/N=N/c1ccc(C2=N/C(=C/c3ccc(F)cc3)C(=O)O2)cc1	32.5	3.91	66.7
CC(=O)Oc1ccc2ccccc2c1/N=N/c1ccc(C2=N/C(=C/c3ccc(OC(F)(F)F)cc3)C(=O)O2)cc1	35.6	3.04	68.7
CN(C)c1ccc(/N=N/c2ccc(C3=N/C(=C/c4ccc(F)cc4)C(=O)O3)cc2)cc1	35.7	2.01	71.9
CN(C)c1ccc(/N=N/c2ccc(C3=N/C(=C/c4ccc(OC(F)(F)F)cc4)C(=O)O3)cc2)cc1	34.3	1.44	67.3
